Patent EP2653477B1, “SCORPION ACTIVE PEPTIDES AND PREPARATION METHODS AND APPLICATIONS THEREOF” (Wuhan More Biotechnology Co., Ltd., priority 2010, dated 2012)
Bridge positions count the residues as written; N and C are the ends. Peptide text beside a SMILES is read from it.

Columns and labels:
rheumatoid arthritis = assay: pristane-induced rheumatoid arthritis in SD rats, joint score and hind foot plantar swelling; type: in vivo; parameters: key to Score of joint: clinical score 1-4: 1 joint red/swollen=1 ... severe whole-limb arthritis=4; settings: x±s, n=10; for Score of joint: arthritis rats, polypeptides 100 µg·kg^-1 (methotrexate 1.75 µg·kg^-1) subcutaneously once every day, score 1-4; for The swelling degree after the inflammation: volume difference of hind foot before and after the modeling
Experimental: […] Female (♀) specific pathogen free (SPF) inbred line SD rats (Wuhan University Laboratory Animal Center), body weight 150±10 g, were selected, and pristane was injected intradermally at the base of the tail of rats in experimental groups at a dose of 0.2 ml/rat, after they were acclimatized in a clean-grade environment for 1 week. Rheumatoid arthritis appeared after the rats were raised for only 2 weeks.
The rats having arthritis were randomized into: normal control group (negative control group), model negative control group (model rat + normal saline), model positive control group (model rat + methotrexate), administration group A (model rat + ADMR-011 polypeptide), administration group B (model rat + ADMR-016 polypeptide), administration group C (model rat + ADMR-019 polypeptide), administration group D (model rat + ADMR-023 polypeptide), and administration group E (model rat + ADMR-028 polypeptide), 10 rats for each group. The administration groups were injected subcutaneously at a dose of 100 µg·kg^-1, once every day in the morning, and administered continuously; the normal control group and the model negative control group were injected subcutaneously with equivalent amount of normal saline; and the model positive control group were injected subcutaneously with methotrexate (MTX) at a dose of 1.75 µg·kg^-1, once every day, and administered continuously.
The highest clinical score for each animal was recorded, and the average value of them was taken to be the average clinical score. The scoring criteria were: one joint of a rat was red and swollen, 1 point; two joints of a rat were red and swollen, 2 points; all the joints of a rat were red and swollen, 3 points; severe arthritis in the entire limb of a rat, 4 points. Table 2. Arthritis scores for rats of various experimental groups (-x±s)
From day 8 of the experiment, the hind foot plantar volume of the rat was measured and recorded every other day for 21 consecutive days, and the swelling degree (mL) was calculated according to the volume difference before and after the modeling. Table 3. The swelling degree of rats in various experimental groups (-x±s)

Wistar rat EAE model = assay: EAE (multiple sclerosis) model in Wistar rats induced by GPSCH-CFA, clinical scoring; type: in vivo; settings: 100 µg·kg^-1 subcutaneously once every day, x±s, n=10, score 0-5
Description: Experimental animals: female inbred line Wistar rats (6∼8 week old, body weigh 150±10 g) and guinea pigs (300∼400 g, purchased from Wuhan University Laboratory Animal Center) were selected.
Formulating a mixed emulsion of whole spinal cord homogenate - Freund's complete adjuvant (GPSCH-CFA): a guinea pig was executed, and the spinal cord was rapidly removed, and prepared into 50% PBS homogenate by a ultrasonic disruptor (Sonics & Materials Inc, America), which was mixed with equal amount of Freund's complete adjuvant (BCG vaccine 10 mg/ml), and was pushed back and forth with syringes until forming a water-in-oil emulsion.
Wistar rat EAE model induced by EAE: GPSCH-CFA emulsion was injected intradermally into the foot pads of both the hind legs of Wistar rats, or simultaneously injected intradermally about 1×10^10 pertussis vaccine. The rats were weighed every day, and observed for their neurological symptoms. Experimental autoimmune encephalomyelitis appeared after the rats had been raised for 2 weeks.
The rats with experimental autoimmune encephalomyelitis (EAE) were divided into […] groups randomly: normal control group (negative control group), model control group (model rats + normal saline), administration group A (model rats + ADMR-011 polypeptide), administration group B (model rats + ADMR-016 polypeptide), administration group C (model rats + ADMR-019 polypeptide), administration group D (model rats + ADMR-023 polypeptide), and administration group E (model rats + ADMR-028 polypeptide), 10 rats for each group. For the administration groups, polypeptides ADMR-011, ADMR-016, ADMR-019, ADMR-023 and ADMR-028 were injected subcutaneously respectively at a dose of 100 µg·kg^-1, once every day in the morning. For the normal control group and the model control group, equivalent amount of normal saline was injected subcutaneously, and administered continuously. […] The highest clinical score for each animal was recorded, and the average value of them was taken to be the average clinical score.
The scoring criteria were: without any clinical symptom, 0 point; disappearance of tension in the tail, and observable mild awkward gait, 1 point; weakness in both the hind limbs, which can recover after passive body flipping, 2 points; paralysis in both the hind limbs, which can not recover after passive body flipping, 3 points; tetraplegia accompanied by incontinence of urine and feces, 4 points; moribund state or death, 5 points. Table 1. Scores for rats of various experimental groups in the EAE model (-x±s)

potassium channel Kv1.3 = target: T1, potassium channel Kv1.3 (Homo sapiens, UniProt P22001); assay: whole-cell patch clamp, inhibition of Kv1.3 current in transfected COS-7 cells; type: cell-based; settings: potassium channel Kv1.3 in COS-7 cells, read-out: polypeptide concentrations that inhibit the current by half (IC50 value)
T1 construct: expressed in transfected cells; host or cells: COS-7 cells, selected with 0.8 mg/mL geneticin
Experimental: COS-7 cells were cultured in a DMEM medium containing 10% fetal calf serum, at 37° C, 5% CO2. The recombinant plasmids of potassium channel Kv1.3 were transfected by using a Sofast™ transfection kit, and the transfected cells were selectively cultured in a medium containing 0.8 mg/mL geneticin. The pharmacological activities of scorpion active polypeptides ADMR-011, ADMR-016, ADMR-019, ADMR-023 and ADMR-028 were tested and analyzed by using an instrument of whole-cell patch clamp (EPC-10 dual-channel patch clamp amplifier HEKA, Elektronik, Lambrecht, Germany). The setting of the experimental parameters, the collecting of data, and the applying of stimulus were all controlled by Pulse software (Elektronik, Lambrecht, Germany). The filter of the instrument was set to be 10 kHz (Bessel), and the electrode impedance was 2∼5 MΩ. After the formation of giga-seal (1∼5 GΩ) between the electrode and cell membrane, an automatic c-fast was performed, and the membrane was broken by slightly applying negative pressure, then an automatic c-slow was performed. At a holding potential of -70 mV, depolarizing pulses, incrementing in 10 mV steps, with a step width of 80 ms , were given to stimulate from -60 mV to +50 mV, and the condition of current was observed. The polypeptides ADMR-011, ADMR-016 and ADMR-019 were accurately perfused, which was achieved by MPS-2 (INBIO Inc, Wuhan, China) perfusing system. After dissolving the three scorpion active polypeptides, they were applied by spraying via DAD Drug Application System (ALA), and the tip of the tube for drug application was about 100 µm away from the cell being recorded.
It can be known from Figure 16 to Figure 20 that, the pharmacological activity of ADMR-011 on potassium channel Kvl.3 was 91 pM, the pharmacological activity of ADMR-016 on potassium channel Kvl.3 was 2.58 nM, the pharmacological activity of ADMR-019 on potassium channel Kv1.3 was 1.41 nM, and the pharmacological activity of ADMR-023 and ADMR-028 on potassium channel Kvl.3 were 0.49 nM and 0.65 nM, respectively. Therefore, they are polypeptides with potent activity that are currently found internationally.

Kunming mice = assay: toxicity study in mice, single intraperitoneal injection, 7 days observation; type: in vivo; settings: 10 mg/kg intraperitoneally once (100 times the dose for animal model), observed 7 days
Experimental: 18∼20 g Kunming mice were selected, and divided into 4 groups, 8 male mice and 8 female mice for each group. The lyophilized powders of scorpion active polypeptides ADMR-011, ADMR-016, ADMR-019, ADMR-023 and ADMR-028 were dissolved with normal saline respectively, and the 3 groups of mice were injected intraperitoneally once respectively with polypeptide solution at a dose of 10 mg/kg (100 times of the dose for animal model), and the fourth group were injected with equivalent amount of normal saline as control.
After the administration, the respiration, motor and heartbeat in animals of all the groups were all normal, without significant abnormal reaction. 7 days after the administration, all the animals were conducted gross anatomy to observe the volume, color and texture of the main organs (heart, liver, spleen, lung, and kidney), and there was no macroscopic lesion. There were no significant difference between the 3 administration groups and the normal saline group.

T1 sequence (P22001 whole entry): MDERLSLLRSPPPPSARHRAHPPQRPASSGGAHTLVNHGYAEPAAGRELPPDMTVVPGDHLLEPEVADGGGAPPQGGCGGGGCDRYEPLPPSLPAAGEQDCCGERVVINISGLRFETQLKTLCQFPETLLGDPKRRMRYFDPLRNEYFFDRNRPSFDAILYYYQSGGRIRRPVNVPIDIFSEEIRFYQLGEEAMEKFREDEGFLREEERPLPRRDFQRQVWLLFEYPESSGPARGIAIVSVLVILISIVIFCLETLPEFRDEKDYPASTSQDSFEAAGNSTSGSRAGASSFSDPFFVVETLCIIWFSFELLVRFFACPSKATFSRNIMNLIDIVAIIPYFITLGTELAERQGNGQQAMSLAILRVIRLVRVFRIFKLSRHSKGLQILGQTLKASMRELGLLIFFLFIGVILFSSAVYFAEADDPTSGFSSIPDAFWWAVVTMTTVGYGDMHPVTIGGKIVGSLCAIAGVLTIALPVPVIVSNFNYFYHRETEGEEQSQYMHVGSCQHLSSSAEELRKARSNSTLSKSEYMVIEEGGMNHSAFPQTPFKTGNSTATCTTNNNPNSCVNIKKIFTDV

Compound	Score of joint (rheumatoid arthritis; 10 d)	Score of joint (rheumatoid arthritis; 15 d)	Score of joint (rheumatoid arthritis; 21 d)	The swelling degree after the inflammation (rheumatoid arthritis; d8) [mL]	The swelling degree after the inflammation (rheumatoid arthritis; d15) [mL]	The swelling degree after the inflammation (rheumatoid arthritis; d22) [mL]	The swelling degree after the inflammation (rheumatoid arthritis; d28) [mL]	Average clinical scores (Wistar rat EAE model; 8 d)	Average clinical scores (Wistar rat EAE model; 10 d)	Average clinical scores (Wistar rat EAE model; 12 d)	Average clinical scores (Wistar rat EAE model; 14 d)	IC50 (potassium channel Kv1.3) [nM]	toxicity in mice (Kunming mice)
CC[C@H](C)[C@H](NC(=O)CNC(=O)[C@@H](N)C(C)C)C(=O)N[C@@H](CC(N)=O)C(=O)N[C@H](C(=O)N[C@@H](CCC(N)=O)C(=O)N[C@H]1CSSC[C@@H]2NC(=O)[C@H](CCC(N)=O)NC(=O)CNC(=O)[C@H](Cc3ccccc3)NC(=O)[C@H](CCCNC(=N)N)NC(=O)[C@H](CCSC)NC(=O)CNC(=O)[C@H](C)NC(=O)[C@H](CC(=O)O)NC(=O)[C@H](CCCCN)NC(=O)[C@@H]3CSSC[C@@H](C(=O)N[C@H](C(=O)N4CCC[C@H]4C(=O)N[C@@H](CCCCN)C(=O)O)[C@@H](C)O)NC(=O)[C@H](CC(=O)O)NC(=O)[C@H](CSSC[C@H](NC(=O)[C@H](CCC(N)=O)NC(=O)CNC(=O)[C@H](CO)NC(=O)[C@H]([C@@H](C)O)NC(=O)[C@H](CC(N)=O)NC1=O)C(=O)N[C@@H](CC(C)C)C(=O)N[C@@H](CCCCN)C(=O)N1CCC[C@H]1C(=O)N3)NC(=O)[C@H](CCCCN)NC(=O)CNC(=O)[C@H](CC(N)=O)NC(=O)[C@H]([C@@H](C)CC)NC2=O)C(C)C [ADMR-016] (H-VGINVQCNTSGQCLKPCKDAGMRFGQCINGKCDCTPK-OH; disulfide 7-27, 13-32, 17-34 (inferred); N-terminus and C-terminus assumed)	1.84±0.71	2.24±0.53	1.96±0.62	0.037 ± 0.012	0.25 ± 0.07	0.37 ± 0.08	0.33 ± 0.12	0.50±0.23	0.87±0.34	1.31±0.42	1.21±0.49	2.58	no significant toxicity
CC[C@H](C)[C@H](NC(=O)CNC(=O)[C@@H](N)C(C)C)C(=O)N[C@@H](CC(N)=O)C(=O)N[C@H](C(=O)N[C@@H](CCC(N)=O)C(=O)N[C@H]1CSSC[C@@H]2NC(=O)[C@H](CCC(N)=O)NC(=O)CNC(=O)[C@H](Cc3ccccc3)NC(=O)[C@H](CCCNC(=N)N)NC(=O)[C@H](CCSC)NC(=O)CNC(=O)[C@H](C)NC(=O)[C@H](CC(=O)O)NC(=O)[C@H](CCCCN)NC(=O)[C@@H]3CSSC[C@@H](C(=O)N[C@H](C(=O)N4CCC[C@H]4C(=O)N[C@@H](CCCCN)C(=O)O)[C@@H](C)O)NC(=O)[C@H](CC(=O)O)NC(=O)[C@H](CSSC[C@H](NC(=O)[C@H](CCC(N)=O)NC(=O)CNC(=O)[C@H](CO)NC(=O)[C@H](Cc4c[nH]cn4)NC(=O)[C@H](CC(N)=O)NC1=O)C(=O)N[C@@H](CC(C)C)C(=O)N[C@@H](CCCCN)C(=O)N1CCC[C@H]1C(=O)N3)NC(=O)[C@H](CCCCN)NC(=O)CNC(=O)[C@H](CC(N)=O)NC(=O)[C@H]([C@@H](C)CC)NC2=O)C(C)C [ADMR-023] (H-VGINVQCNHSGQCLKPCKDAGMRFGQCINGKCDCTPK-OH; disulfide 7-27, 13-32, 17-34 (inferred); N-terminus and C-terminus assumed)	1.69±0.23	2.23±0.71	1.85±0.59	0.035 ± 0.010	0.25 ± 0.08	0.32 ± 0.14	0.29 ± 0.15	0.55±0.19	0.81±0.29	1.21±0.25	1.17±0.27	0.49	no significant toxicity
